This note sets out measurements from ChEMBL document CHEMBL4680363, “Novel Bicyclic Heterocycles as FGFR Inhibitors for Treating Cancer” (ACS Med Chem Lett, 2021).

For orientation: IC50 means the midpoint of a concentration-inhibition curve.

Each structure is given as a SMILES string.

The target of this test is Fibroblast growth factor receptor 3 (Homo sapiens, UniProt P22607). Nature of the test: Inhibition of recombinant human N-terminal His6-tagged FGFR3 (447 to 761 residues) expressed in Sf21 cells using biotinylated EQEDEPEGDYFEWLE peptide as substrate preincubated for 4 hrs followed by substrate addition and measured after 1 hr in presence of ATP by FRET assay.
Chain of Fibroblast growth factor receptor 3 (P22607 whole entry, the tested form may be a part): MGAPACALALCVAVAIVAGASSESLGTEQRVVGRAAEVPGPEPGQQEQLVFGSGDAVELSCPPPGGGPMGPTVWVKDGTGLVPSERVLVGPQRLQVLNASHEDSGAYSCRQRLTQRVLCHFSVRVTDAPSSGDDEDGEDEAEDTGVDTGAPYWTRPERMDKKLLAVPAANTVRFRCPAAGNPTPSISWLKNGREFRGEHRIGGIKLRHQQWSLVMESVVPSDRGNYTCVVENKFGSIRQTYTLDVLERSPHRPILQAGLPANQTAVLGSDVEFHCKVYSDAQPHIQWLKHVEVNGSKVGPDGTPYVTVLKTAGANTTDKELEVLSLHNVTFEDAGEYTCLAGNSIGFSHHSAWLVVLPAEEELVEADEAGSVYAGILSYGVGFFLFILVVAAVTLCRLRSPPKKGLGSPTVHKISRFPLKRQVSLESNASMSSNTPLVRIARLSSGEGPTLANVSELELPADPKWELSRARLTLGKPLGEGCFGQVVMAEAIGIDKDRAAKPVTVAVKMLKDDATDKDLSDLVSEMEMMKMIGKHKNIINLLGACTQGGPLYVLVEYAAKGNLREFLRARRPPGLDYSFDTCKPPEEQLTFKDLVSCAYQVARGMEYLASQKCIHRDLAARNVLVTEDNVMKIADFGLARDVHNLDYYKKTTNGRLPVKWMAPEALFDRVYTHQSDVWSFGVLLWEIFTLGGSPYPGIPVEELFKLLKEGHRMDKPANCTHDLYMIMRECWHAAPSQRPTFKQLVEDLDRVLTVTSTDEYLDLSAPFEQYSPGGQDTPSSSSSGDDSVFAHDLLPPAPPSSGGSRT
In the case of `CC(C)C1C(=O)N(C)CCN1c1ccc2[nH]nc(-c3cnn(Cc4cccnc4)c3)c2n1` (stereo unspecified), the IC50 is below 10 nM.
Take `Cn1cc(-c2n[nH]c3ccc(N4CCn5cnc(C(F)(F)F)c5C4)nc23)cn1`: the IC50 is below 10 nM.
Consider `CC(C)C1C(=O)N(C)CCN1c1ccc2[nH]nc(-c3cnn(C)c3)c2n1` (stereo unspecified), for which the IC50 is below 10 nM.
Then `CN1CCN(c2ccc3[nH]nc(-c4cnn(C)c4)c3n2)C(C2CC2)C1=O` (stereo unspecified), with below 10 nM; and `CC(C)C1C(=O)N(C)CCN1c1ccc2[nH]nc(-c3cc4cnccc4s3)c2n1` (stereo unspecified), with below 10 nM.
In the case of `CC1CN(c2ccc3[nH]nc(-c4cnn(C)c4)c3n2)C(C)C(=O)N1C` (stereo unspecified) it was below 10 nM.
